US20250250251A1, “PIPERIDINYLPYRIDINYLCARBONITRILE DERIVATIVES AS INHIBITORS OF GLUTAMINYL-PEPTIDE CYCLOTRANSFERASE AND GLUTAMINYL-PEPTIDE CYCLOTRANSFERASE LIKE PROTEIN” (Boehringer Ingelheim International GmbH, priority 2024, published 2025)
Read-outs that look alike come from different tables or passages of the source.

Assays:
CACO-2 cells = assay: Assay C: permeability in CACO-2 cells; type: in vitro ADME; conditions: pairs with and without 4-fluoropiperidyl, CACO2 cells
Protocol: (§1) Caco-2 cells (1-2×10^5 cells/1 cm^2 area) are seeded on filter inserts (Costar transwell polycarbonate or PET filters, 0.4 μm pore size) and cultured (DMEM) for 10 to 25 days. Compounds are dissolved in appropriate solvent (like DMSO, 1-20 mM stock solutions). […] The transport solution (TL) is applied to the apical or basolateral donor side for measuring A-B or B-A permeability (3 filter replicates), respectively. Samples are collected at the start and end of experiment from the donor and at various time intervals for up to 2 hours also from the receiver side for concentration measurement by HPLC-MS/MS or scintillation counting. Sampled receiver volumes are replaced with fresh receiver solution.
(§2) Efflux ratio (ER)=permeability B−A/permeability A−B

[1] = Assay C: permeability in CACO-2 cells; type: in vitro ADME; conditions: human; for efflux ratio: read-out: Efflux Ratio
Protocol: as §1, §2

[2] = test system: SIRPα signalling induced by Raji cells; assay: Assay B: SIRPα signalling assay using Raji cells; type: cell-based; conditions: Homo sapiens, read-out: Inhibition of SIRPα signalling induced by Raji cells: IC50
Protocol: Bioassay reagent 1 of the PathHunter Bioassay detection kit (DiscoverX 93-0001) was added to each well of the plate using a multichannel pipette followed by a 15 min incubation at room temperature. Afterwards bioassay reagent 2 was added followed by 60 min incubation at room temperature (incubation in the dark).
(§3) The analysis of the data was performed using the luminescence signal generated by beta-galactosidase in the PathHunter reporter cell line. The luminescence measurement was done using a Pherastar Multi-Mode Reader.

[3] = test system: SIRPα signalling induced by A549 cells; assay: Assay B: SIRPα signalling assay using A549 cells; type: cell-based; conditions: Homo sapiens, read-out: Inhibition of SIRPα signalling induced by A549 cells: IC50
Protocol: Two cell types are independently used: the Raji cell line (lymphoblast-like human cell line derived from B lymphocytes from a Burkitt's lymphoma patient in 1963) and A549 cells (adenocarcinoma human alveolar basal epithelial cells).
Test compounds were dissolved in 100% DMSO and serially diluted into a white 384-well microtiter cell culture plate (PerkinElmer #60076780 in case of Raji assay; PDL-coated plates Greiner #781945 in case of A549 assay). 5000 Raji cells (ATCC #CC86) or 5000 A549 cells (ATCC #CCL-185) in Assay Complete Cell Plating reagent 30 (DiscoverX 93-0563R30B) were added per well. The assay plate was incubated for 48 h at 37° C., 95% humidity and 5% CO2. 15000 reporter cells (Jurkat PathHunter SIRPαV1, DiscoverX #93-1135C19) were added to each well, and the plate was incubated for 5 h at 37° C., 95% humidity and 5% CO2. Bioassay reagent 1 of the PathHunter Bioassay detection kit (DiscoverX 93-0001) was added to each well of the plate using a multichannel pipette followed by a 15 min incubation at room temperature. Afterwards bioassay reagent 2 was added followed by 60 min incubation at room temperature (incubation in the dark).
as §3, with “Reader. Dose-response curves & IC50 data were calculated with 4-parameter sigmoidal dose response formula.” for “Reader.”

QPCTL = target: T1, QPCTL (Homo sapiens, UniProt Q9NXS2); assay: Assay A: biochemical QPCTL activity assay (MALDI-TOF MS, CD47 peptide substrate); conditions: read-out: Inhibition of QPCTL: IC50
T1 construct: made in house
Protocol: (§4) QPCT or QPCTL dependent conversion of N-terminal glutamine to pyroglutamate of CD47 was monitored via MALDI-TOF MS. Test compounds were dissolved in 100% DMSO and serially diluted into clear 1,536-well microtiter plates. Enzymatic reactions were set up in assay buffer containing 20 mM Tris pH 7.5, 0.1 mM TCEP, 0.01% BSA, and 0.001% Tween20. […] The plates were incubated for 10 min in a humidified incubator at 24° C. Subsequently, 2.5 μL of CD47 peptide substrate surrogate (^19[…]^33) was added to each well (final concentration: 10 μM for QPCTL/20 μM for QPCT). The plates were mixed for 30 sec at 1,000 rpm and subsequently incubated for 40 min in a humidified incubator at 24° C. […] The plates were sealed with an adhesive foil, mixed for 30 s at 1,000 rpm and stored at room temperature until preparation of the MALDI target plates. MALDI target plates were prepared as described previously. […] QPCT or QPCTL activity was monitored by calculating the ratio between product and internal standard signals followed by normalization to high (100% activity) and low (0% activity) controls. Determination of compound potencies was obtained by fitting the dose-response data to a four-parameter logistical equation.

QPCT = target: T2, QPCT (Homo sapiens, UniProt Q16769); assay: Assay A: biochemical QPCT activity assay (MALDI-TOF MS, CD47 peptide substrate); conditions: read-out: Inhibition of QPCT: IC50
T2 construct: purchased Origine (OriGene) TP700028
Protocol: as §4

murine hepatocytes = assay: Assay E: stability in murine hepatocytes; type: in vitro ADME, mouse; conditions: 1 μM, 5% species serum
Protocol: The metabolic degradation of the test compound is assayed in a murine hepatocyte suspension.
Murine hepatocytes (typically cryopreserved) are incubated in an appropriate buffer system (e.g. Dulbecco's modified eagle medium plus 3.5 μg glucagon/500 mL, 2.5 mg insulin/500 mL and 3.75 mg/500 mL hydrocortison) containing 5% species serum.
Following a (typically) 30 min preincubation in an incubator (37° C., 10% CO2) 5 μl of test compound solution (80 μM; from 2 mM in DMSO stock solution diluted 1:25 with medium) are added into 395 μl hepatocyte suspension (cell density in the range 0.25-5 Mio cells/mL, typically 1 Mio cells/mL; final concentration of test compound 1 μM, final DMSO concentration 0.05%).
The cells are incubated for six hours (incubator, orbital shaker) and samples (25 μl) are taken at 0, 0.5, 1, 2, 4 and 6 hours. Samples are transferred into acetonitrile and pelleted by centrifugation (5 min). The supernatant is transferred to a new 96-deepwell plate, evaporated under nitrogen and resuspended.
Decline of parent compound is analyzed by HPLC-MS/MS
CLint is calculated as follows CL_[…]=Dose/AUC=(C0/CD)/(AUD+clast/k)×1000/60. C0: initial concentration in the incubation [μM], CD: cell density of vital cells [10e6 cells/mL], AUD: area under the data [μM×h], clast: concentration of last data point [μM], k: slope of the regression line for parent decline [h−1].
The calculated in vitro hepatic intrinsic clearance can be scaled up to the intrinsic in vivo hepatic Clearance and used to predict hepatic in vivo blood clearance (CL) by the use of a liver model (well stirred model).
[formula] [formula] [formula] • Hepatocellularity, mouse: 120×10e6 cells/g liver • Liver factor, mouse: 55 g/kg bodyweight • Blood flow, mouse: 90 ml/(min×kg)

CYP3A4 mRNA = assay: Assay D: CYP induction screening assay in primary human hepatocytes; type: in vitro ADME; conditions: 48 h
Protocol: Cryopreserved plateable human hepatocytes (single donor. BioIVT) were thawed and plated in Collagen-I coated 96-well-plates at a cell density of 0.07 million cells per well.
After a 6 h attachment period, the seeding medium was replaced by serum-free William's medium E supplemented with Matrigel (0.25 mg/ml) and allowed to recover overnight. 24 h post-seeding, serum-free Williams E medium containing the test compound at a final concentration of […] and a final DMSO content of 0.1% and 0.1% DMSO (solvent-treated control), respectively, was added to predefined wells. Exposure solutions were renewed after 24 h.
After 48 h of treatment in total, the effect of the test compounds on CYP3A4 mRNA expression was assessed using the QuantiGene Plex Gene Expression Assay. Hepatocytes were lysed and total RNA was extracted using the QuantiGene Sample Processing Kit according to the instructions of the manufacturer.
mRNA quantification was conducted using a customized QuantiGene Plex Panel to analyse CYP3A4 and the housekeeper genes RPL32, EIF4E2 and GUSB according to the instructions of the manufacturer and measured on a Luminex™ instrument. Signal was reported as median fluorescence intensity (MFI), which is proportional to the number of target RNA molecules present in the sample.
For calculation of CYP3A4 mRNA induction, the signal for CYP3A4 was normalized against the geometric mean of the signal obtained for the housekeeper genes for hepatocytes exposed to test compounds in relation to solvent-treated samples according to the following equation: […]

[4] = pH 7.2, Table 7, compounds of the invention, CACO-2 cells
[5] = pH 7.2, Table 7, compounds of the invention, CACO-2 cells, permeability B-A/permeability A-B
[6] = Table 4, compounds of the invention
[7] = Table 2, compounds of the invention
[8] = Table 12, compounds of the invention
[9] = Table 9, compounds of the invention

T2 sequence (Q16769 29-361): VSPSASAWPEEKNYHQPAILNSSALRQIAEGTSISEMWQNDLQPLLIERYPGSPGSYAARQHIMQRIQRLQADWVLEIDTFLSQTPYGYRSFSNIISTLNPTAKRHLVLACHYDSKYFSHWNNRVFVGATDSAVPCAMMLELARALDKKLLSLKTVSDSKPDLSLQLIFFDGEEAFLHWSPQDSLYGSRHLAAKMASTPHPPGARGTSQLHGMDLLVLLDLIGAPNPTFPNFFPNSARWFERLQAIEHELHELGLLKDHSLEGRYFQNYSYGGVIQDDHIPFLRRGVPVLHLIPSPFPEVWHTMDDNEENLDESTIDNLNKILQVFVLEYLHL
T1 sequence (Q9NXS2 whole entry, species assumed): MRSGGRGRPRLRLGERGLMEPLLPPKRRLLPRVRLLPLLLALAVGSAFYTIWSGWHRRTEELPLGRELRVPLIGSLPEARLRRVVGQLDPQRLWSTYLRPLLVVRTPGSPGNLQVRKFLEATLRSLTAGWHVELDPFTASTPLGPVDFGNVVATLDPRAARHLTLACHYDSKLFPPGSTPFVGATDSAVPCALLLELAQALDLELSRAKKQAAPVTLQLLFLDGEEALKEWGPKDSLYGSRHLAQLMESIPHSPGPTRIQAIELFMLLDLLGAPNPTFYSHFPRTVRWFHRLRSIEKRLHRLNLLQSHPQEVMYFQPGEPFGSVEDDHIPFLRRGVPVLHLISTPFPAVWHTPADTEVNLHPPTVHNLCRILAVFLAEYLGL

Cn1cnnc1C1CCN(c2c(-c3ccc(F)nc3)ccnc2C#N)CC1 [Compound 132 in WO 2024/020517]
CACO2 Perm. (CACO-2 cells): 1.8 10^−6 cm/sec

Cn1cnnc1C1CCN(c2c(C#N)cc(C(F)(F)F)nc2-c2cnc3nn(C(C)(C)C)c(Cl)c3c2)CC1
CACO2 Perm. (CACO-2 cells): 1.0 10^−6 cm/sec

Cn1cnnc1C1CCN(c2c(C#N)ccnc2-c2ccc(F)nc2)CC1 [Compound 133 in WO 2024/020517]
CACO2 Perm. (CACO-2 cells): 4.8 10^−6 cm/sec

Cn1cnnc1C1(F)CCN(c2c(C#N)cccc2-c2ccc(F)nc2)CC1 [Example 56 in EP 23161417.3]
CACO2 Perm. (CACO-2 cells): 50.0 10^−6 cm/sec

Cn1cnnc1C1CCN(c2c(C#N)cc(C(F)(F)F)nc2-c2cnc3nn(C(C)(C)C)c(C(F)(F)F)c3c2)CC1 [Example 13 in EP 23189886.7]
CACO2 Perm. (CACO-2 cells): 3.7 10^−6 cm/sec

Cn1cnnc1C1CCN(c2c(C#N)cccc2-c2cnc3nn(C(C)(C)C)cc3c2)CC1 [Example 50 in EP 22216126.7]
CACO2 Perm. (CACO-2 cells): 0.5 10^−6 cm/sec

Cn1cnnc1C1(F)CCN(c2c(C#N)cc(C(F)(F)F)nc2-c2cnc3nn(C(C)(C)C)c(C(F)(F)F)c3c2)CC1 [Example 4 in EP 23189886.7]
CACO2 Perm. (CACO-2 cells): 99.5 10^−6 cm/sec

Cn1cnnc1C1(F)CCN(c2c(C#N)cc(C(F)(F)F)nc2-c2cnc3nn(C(C)(C)C)c(Cl)c3c2)CC1 [Example 3 in EP 23189886.7]
CACO2 Perm. (CACO-2 cells): 47.0 10^−6 cm/sec

Cn1cnnc1C1CCN(c2c(C#N)cc(C(F)(F)F)cc2-c2ccc(F)nc2)CC1 [Compound 70 in WO 2024/020517]
CACO2 Perm. (CACO-2 cells): 9.0 10^−6 cm/sec

Cn1cnnc1C1CCN(c2c(-c3cnc4nn(C(C)(C)C)cc4c3)ccc(C(F)(F)F)c2C#N)CC1 [Example 32 in EP 23161417.3]
CACO2 Perm. (CACO-2 cells): 0.2 10^−6 cm/sec

Cn1cnnc1C1(F)CCN(c2c(C#N)cccc2-c2cnc3nn(C(C)(C)C)cc3c2)CC1 [Example 62 in EP 22216126.7]
CACO2 Perm. (CACO-2 cells): 4.9 10^−6 cm/sec

Cn1cnnc1C1(F)CCN(c2c(C#N)cc(C(F)(F)F)cc2-c2ccc(F)nc2)CC1 [Example 4 in EP 23161417.3]
CACO2 Perm. (CACO-2 cells): 40.5 10^−6 cm/sec

Cn1cnnc1C1CCN(c2c(C#N)cc(Cl)cc2-c2ccc(F)nc2)CC1 [Compound 18 in WO 2024/020517]
CACO2 Perm. (CACO-2 cells): 23.0 10^−6 cm/sec

Cn1cnnc1C1CCN(c2c(C#N)cc(Cl)cc2-c2cnc3nn(C(C)(C)C)cc3c2)CC1 [Example 17 in EP 23161417.3]
CACO2 Perm. (CACO-2 cells): 2.5 10^−6 cm/sec

Cn1cnnc1C1(F)CCN(c2c(C#N)cc(F)cc2-c2ccc(F)nc2)CC1 [Example 6 in EP 23161417.3]
CACO2 Perm. (CACO-2 cells): 44.0 10^−6 cm/sec

Cn1cnnc1C1CCN(c2c(C#N)cccc2-c2ccc3ocnc3c2)CC1 [Compound 15, reference compound]
Papp A→B ([1]; Caco-2, pH 7.2): 11 ×10⁻⁶ cm/s | efflux ratio ([1]; Caco-2, pH 7.2): 5.4 | IC50 ([2]; Table 5, prior art compounds): 5990 nM | IC50 ([3]; Table 5, prior art compounds): 3150 nM | IC50 (QPCTL; Table 3, prior art compounds): 554 nM | IC50 (QPCT; Table 3, prior art compounds): 1080 nM | Mouse Hepatocyte Stability QH (murine hepatocytes; Table 13, prior art compounds): 65% | n-fold induction of CYP3A4 at 10 μM (CYP3A4 mRNA; Table 10, prior art compounds): 8.7 n-fold

Cn1cnnc1C1CCN(c2c(C#N)cccc2-c2ccc3nonc3c2)CC1 [Compound 19, reference compound]
Papp A→B ([1]; Caco-2, pH 7.2): 19 ×10⁻⁶ cm/s | efflux ratio ([1]; Caco-2, pH 7.2): 3.4 | IC50 ([2]; Table 5, prior art compounds): 2810 nM | IC50 ([3]; Table 5, prior art compounds): 296 nM | IC50 (QPCTL; Table 3, prior art compounds): 117 nM | IC50 (QPCT; Table 3, prior art compounds): 106 nM | Mouse Hepatocyte Stability QH (murine hepatocytes; Table 13, prior art compounds): 62% | n-fold induction of CYP3A4 at 10 μM (CYP3A4 mRNA; Table 10, prior art compounds): 15.8 n-fold

Cc1ncc(-c2cc(C#N)c(N3CCC(F)(c4nncn4C)CC3)c(-c3cnc4nn(C(F)(F)F)cc4c3)n2)cn1 [Example 25]
Papp A→B [1, 4]: 3.1 ×10⁻⁶ cm/s | efflux ratio [1, 5]: 16.8 | IC50 [2, 6]: 181 nM | IC50 [3, 6]: 52 nM | IC50 (QPCTL; [7]): 3 nM | IC50 (QPCT; [7]): 3 nM | Mouse Hepatocyte Stability QH (murine hepatocytes; [8]): 38% | n-fold induction of CYP3A4 at 10 μM (CYP3A4 mRNA; [9]): 0.8 n-fold

Cn1cnnc1C1(F)CCN(c2c(C#N)cc(C(C)(F)F)nc2-c2cnc3nn(C(F)(F)F)cc3c2)CC1 [Example 3]
Papp A→B [1, 4]: 11 ×10⁻⁶ cm/s | efflux ratio [1, 5]: 6.4 | IC50 [2, 6]: 10 nM | IC50 [3, 6]: 7 nM | IC50 (QPCTL; [7]): 3 nM | IC50 (QPCT; [7]): 3 nM | Mouse Hepatocyte Stability QH (murine hepatocytes; [8]): <12% | n-fold induction of CYP3A4 at 10 μM (CYP3A4 mRNA; [9]): 4.2 n-fold
